What all share (test): NCI tumour cell line growth inhibition, 48 h
For test [1], the system named is PC-3 prostate.
In test [2] the test system is HOP-92 NSCLC.
The test system of test [3] is UACC-257 melanoma.
For test [4], the system named is SK-MEL-2 melanoma.
Test [5] deals with K-562 leukemia.
In test [6] the test system is SK-OV-3 ovarian.
Test [7] concerns LOX IMVI melanoma.
For test [8], the system named is UO-31 renal.
For test [9], the system named is T-47D breast.
Test [10] deals with SF-295 CNS.
Test [11] has as its system CAKI-1 renal.
Test [12] has as its system SN12C renal.
Test [13] deals with BT-549 breast.
In test [14] the test system is KM12 colon.
The subject of test [15] is EKVX NSCLC.
The test system of test [16] is TK-10 renal.

Several values for one entry are separate records, joined by “and”; a condition that tells them apart may be missing. Equal values may be shown once.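 96-well plates; 48 h exposure; 5 concentrations. Endpoints by linear interpolation between flanking doses. Not reached: highest tested concentration assigned. Here, GI50 denotes the concentration required for 50% inhibition of growth. Definition used: TGI = concentration required for complete inhibition of growth.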

`N#C/C(=C\N1CCNC1=S)C(=O)c1ccc2ccccc2c1`: the TGI in test [1], in [2], in test [3], in test [4], in test [5] and in [6] was over 100 µM each time. Also, the TGI in [7], in test [8], in test [9], in [10], in [11] and in test [12] was over 100 µM throughout. Further, the TGI in test [13], in test [14], in [15] and in [16] was over 100 µM each time.
Consider `COC(=O)c1ccc(/C=N/c2cc(C)nn2-c2ccccc2)cc1`, for which the TGI was over 100 µM in test [1]; over 100 µM in test [2]; 20.4 µM in test [3]; over 100 µM in test [4]; over 100 µM in test [5]; over 100 µM in test [6]. Also, the TGI is over 100 µM in [7]; over 100 µM in test [8]; 58 µM in test [9]; over 100 µM in [10]; over 100 µM in test [11]; over 100 µM in test [12]. Besides, the TGI was over 100 µM in [13], over 100 µM in test [14], over 100 µM in test [15] and 6.18 µM in [16].
Turning to `COc1ccc(-c2c(N)n(-c3cc(OC)cc(OC)c3)c(=O)c3cc([N+](=O)[O-])ccc23)cc1`, the TGI in test [1] is over 100 µM; in test [2], 34.1 µM; in [3], over 100 µM; in test [4], over 100 µM; in test [5], over 100 µM; in [6], over 100 µM. Moreover, the TGI in test [7] is over 100 µM; in test [8] it was over 100 µM; in test [9], over 100 µM; in test [10] it was over 100 µM; in [11], over 31.6 µM; in test [12], over 100 µM. The TGI is over 93.6 µM in test [13], over 100 µM in test [14], over 100 µM in [15] and over 100 µM in test [16].
Regarding `COC(=O)c1ccc(NCc2cc(O)c3ccccc3c2O)cc1`, the TGI in test [1] was 33.5 µM; in test [2], 9.97 µM; in test [3] it was 20.5 µM; in [4], 43.2 µM; in [5], 6.97 µM; in test [6], 31.6 µM. Further, the TGI in [7] is 11.5 µM; in test [8], 26.7 µM; in test [9], 40.7 µM; in test [10], 19.9 µM; in test [11], 13.4 µM; in [12] it was 40 µM. The TGI in [13] is 30.7 µM; in test [14], over 50 µM; in [15], 48.7 µM; in test [16] it was 39.1 µM.
In the case of `COC(=O)C1=C(O)C(C(=O)OC)[C@@]2(O)[C@@H](C(=O)OC)C(c3ccc(OC(=O)/C(=C/c4ccccc4)c4ccccc4)cc3)C[C@@H]1[C@@H]2C(=O)OC` (stereo not given in full), the TGI in [1] is over 100 µM; in test [2] it was over 100 µM; in test [3] it was over 100 µM; in test [4], 46.2 µM; in test [5] it was over 100 µM; in test [6], over 100 µM. Also, the TGI in test [7] was 22.5 µM; in test [8], 40.4 µM; in [9], over 100 µM; in test [10] it was over 100 µM; in test [11], over 100 µM; in [12], over 100 µM. The TGI is over 100 µM in test [13], over 100 µM in test [14], over 100 µM in [15] and 51.4 µM in [16].
In the case of `CC(=O)OCC1OC(Sc2nc(-c3ccc(C)cc3)c(C#N)c(=O)n2C2OC(COC(C)=O)C(OC(C)=O)C(OC(C)=O)C2OC(C)=O)C(OC(C)=O)C(OC(C)=O)C1OC(C)=O` (stereo not given), the TGI in [1], in test [2], in test [3], in test [4], in test [5] and in test [6] was over 100 µM throughout. Also, the TGI in test [7], in test [8], in [9], in test [10], in test [11] and in test [12] was over 100 µM in each case. The TGI in test [13], in [14], in test [15] and in [16] was over 100 µM throughout. Besides, the GI50 in test [2] is > 100 µM and 41.7 µM; in test [5] it was over 100 µM; in [14], > 100 µM and 38.7 µM.
`S=c1scc(-c2ccc(Cl)cc2)n1OC1CCCC1`: the TGI in test [1] is over 100 µM; in [2] it was over 100 µM; in test [3] it was over 100 µM; in test [4], 44.6 µM; in test [5], over 100 µM; in test [6], over 100 µM. For the same molecule, the TGI in test [7], in test [8], in test [9], in [10], in test [11] and in [12] was over 100 µM each time. Also, the TGI in [13] is 94.7 µM; in [14] it was over 100 µM; in [15], over 100 µM; in test [16], over 100 µM.

Source of the values: PubChem BioAssay (NCI).
